Measured values as given in PMC11211886 (Frontiers in Pharmacology, 2024).
Several values for one entry are separate records, joined by “and”; a condition that tells them apart may be missing. Equal entries are not always repeated. Where two headings read alike, the source gives them in different places.

Experiments:
CYP2C9 = target: T1, CYP2C9 (Homo sapiens, UniProt P11712); experiment: Reversible CYP inhibition in HLM, CYP2C9 (diclofenac); type: in vitro ADME; conditions: for enzyme activity remaining: CYP2C9, HLM
T1 construct: tissue Life Technologies (Durham, NC, USA); host or cells: human liver microsomes
T1 sequence (P11712 whole entry): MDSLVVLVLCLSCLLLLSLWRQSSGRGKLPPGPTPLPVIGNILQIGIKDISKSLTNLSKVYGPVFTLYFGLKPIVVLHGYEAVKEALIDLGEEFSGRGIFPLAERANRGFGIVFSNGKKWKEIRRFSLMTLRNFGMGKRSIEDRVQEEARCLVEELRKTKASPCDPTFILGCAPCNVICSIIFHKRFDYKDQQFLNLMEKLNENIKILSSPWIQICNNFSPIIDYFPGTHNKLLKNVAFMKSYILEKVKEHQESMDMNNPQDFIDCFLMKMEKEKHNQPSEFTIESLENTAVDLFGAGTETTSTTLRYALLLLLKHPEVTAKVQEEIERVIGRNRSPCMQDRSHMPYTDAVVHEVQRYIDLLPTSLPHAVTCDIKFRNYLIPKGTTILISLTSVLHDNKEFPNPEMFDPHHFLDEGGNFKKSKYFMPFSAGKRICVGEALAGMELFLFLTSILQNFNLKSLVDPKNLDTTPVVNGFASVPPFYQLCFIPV
Description: (§1) The markers used to determine the activities of CYP isoforms were phenacetin O-deethylation for CYP1A2 (probe substrate: 50 µM phenacetin), bupropion hydroxylation for CYP2B6 (probe substrate: 70 µM bupropion), paclitaxel 6α-hydroxylation for CYP2C8 (probe substrate: 10 µM paclitaxel), diclofenac 4′-hydroxylation for CYP2C9 (probe substrate: 5 µM diclofenac), S-(+)-mephenytoin 4′-hydroxylation for CYP2C19 (probe substrate: 20 µM S-(+)-mephenytoin), dextromethorphan O-demethylation for CYP2D6 (probe substrate: 6 µM dextromethorphan), chlorzoxazone 6′-hydroxylation for CYP2E1 (probe substrate: 70 µM chlorzoxazone), and testosterone 6β-hydroxylation and midazolam 1′-hydroxylation for CYP3A4/5 (probe substrate: 45 µM testosterone and 5 µM midazolam). […] Alpha-naphthoflavone (0.04 µM), 2-phenyl-2-(1-piperidinyl)propane (5 µM), quercetin (1 µM), sulfaphenazole (0.5 µM), ticlopidine (4 µM), quinidine (0.2 µM), diethyldithiocarbamate (20 µM), and ketoconazole (0.05 µM) were used as positive inhibitors of CYP1A2, 2B6, 2C8, 2C9, 2C19, 2D6, 2E1, and 3A4, respectively. The vehicle control was prepared in the same composition as inhibitor solutions but free of inhibitors. The concentrations of probe substrates were close to Km values that were determined in-house and within the range recommended by the FDA ([Huang et al., 2007]). Reaction mixtures were incubated at 37°C for 5, 20, or 30 min, depending on the probe substrates of CYP isoforms. The reactions were terminated by adding cold acetonitrile containing IS, and the terminated incubation mixtures were centrifuged at 3,000 g for 10 min before LC-MS/MS analysis.

CYP2D6 = target: T2, CYP2D6 (Homo sapiens, UniProt P10635); experiment: Reversible CYP inhibition in HLM, CYP2D6 (dextromethorphan); type: in vitro ADME; conditions: for enzyme activity remaining: CYP2D6, HLM
T2 construct: tissue Life Technologies (Durham, NC, USA); host or cells: human liver microsomes
T2 sequence (P10635 whole entry): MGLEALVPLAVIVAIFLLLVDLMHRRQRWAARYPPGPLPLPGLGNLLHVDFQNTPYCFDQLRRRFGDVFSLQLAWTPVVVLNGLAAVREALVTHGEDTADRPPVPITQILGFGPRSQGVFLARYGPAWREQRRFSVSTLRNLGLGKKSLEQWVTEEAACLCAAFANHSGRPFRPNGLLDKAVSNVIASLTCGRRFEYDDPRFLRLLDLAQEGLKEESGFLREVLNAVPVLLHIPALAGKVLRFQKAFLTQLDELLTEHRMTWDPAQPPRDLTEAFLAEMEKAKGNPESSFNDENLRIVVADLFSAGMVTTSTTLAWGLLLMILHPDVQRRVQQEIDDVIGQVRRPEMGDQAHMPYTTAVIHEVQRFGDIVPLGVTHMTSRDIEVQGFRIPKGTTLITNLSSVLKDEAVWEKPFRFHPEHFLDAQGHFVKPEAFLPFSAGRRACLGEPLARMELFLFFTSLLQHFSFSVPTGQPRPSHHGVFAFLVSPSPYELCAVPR
Description: as §1

[1] = Amdizalisib remaining/concentration after the last incubation in hepatocyte induction assays; conditions: for Amdizalisib concentration: CYP2C induction assay; for percentage of amdizalisib remaining: 5 h after last incubation
Description: (§2) […] […] […] Enzyme activity for each CYP isoform was reported as a fold change over vehicle control and the percent of positive control (detailed calculation in Supplementary 1.1). Hepatocytes were harvested with a lysis buffer from RNeasy 96 Kit (Qiagen Inc., Germantown, MD, USA) to isolate RNA, which was analyzed by real-time quantitative polymerase chain reaction (RT-PCR). […] Emax (the maximal observed induction) and EC50 (the concentration that supports half-maximal induction) were estimated by non-linear regression of fold increase in CYP mRNA expression versus concentration plots.

[2] = Plasma protein binding (RED), human plasma; type: in vitro ADME; conditions: mouse, rat, dog, monkey, human, plasma, pH 7.4; all species, all cases (data not shown); read-out: post-dialysis recovery
Description: (§3) The plate containing plasma and buffer was equilibrated for 6 h in a 37°C water shaking bath. After incubation, aliquots of buffer and plasma (20 µL) on both sides were collected and precipitated using organic solvents. […] The post-dialysis recovery of amdizalisib was also measured.

plasma proteins = experiment: Plasma protein binding (RED), human plasma; type: in vitro ADME
Description: as §3

Caco-2 cell monolayers = experiment: Caco-2 bidirectional transport permeability; type: in vitro ADME, human
Description: (§4) The passage number of cells used in this study was 39. Non-specific binding to the device surfaces and the aqueous solubility of test compounds were tested before the transport experiment. […] The integrity of the monolayer was estimated by measuring transepithelial electrical resistance (TEER). Only the monolayers with TEER over 150 Ω were used for the studies.

[3] = Caco-2 bidirectional transport permeability; type: in vitro ADME, human; conditions: human
Description: as §4

CYP2B6 = conditions: male, human, 48 h
Description: as §2
The fold of vehicle control and the percent of positive control were calculated with the formulas below:
Fold of vehicle control = CYPs activity of test compound (or positive control) treated sample / CYPs activity of vehicle control treated sample
% of positive control = [(fold change in treated sample)-1] / [(fold change in positive control)-1] × 100
Based on the enzyme activity, a minimum of 2-fold increase compared to vehicle control for the positive control and ≥40% of the positive control for the test article was considered as the cutoff for a positive signal in in vitro induction assay.

CYP3A4/5 = experiment: Reversible CYP inhibition in HLM, CYP3A4/5 (testosterone, midazolam); type: in vitro ADME, human
Description: as §1

[4] = HLM, reversible, without pre-incubation

**Q.** What does the source list for C[C@H](Nc1ncnc(N)c1C#N)c1cc2ncc(Cl)n2nc1-c1ccccc1 [Amdizalisib]?
**A.** enzyme activity remaining (CYP2C9; 0.08 μM): 98.3% and 99.7%; enzyme activity remaining (CYP2C9; 0.4 μM): 94.2% and 95.6%; enzyme activity remaining (CYP2C9; 2 μM): 82.6%; enzyme activity remaining (CYP2C9; 10 μM): 53.7% and 52.8%; enzyme activity remaining (CYP2C9; 50 μM): 17.2% and 16.0%; IC50 (CYP2C9; [4]): 10.7 µM; enzyme activity remaining (CYP2D6; 0.08 μM): 103%; enzyme activity remaining (CYP2D6; 0.4 μM): 103% and 107%; enzyme activity remaining (CYP2D6; 2 μM): 104% and 98.0%; enzyme activity remaining (CYP2D6; 10 μM): 98.0% and 98.6%; enzyme activity remaining (CYP2D6; 50 μM): 80.0% and 84.5%; IC50 (CYP2D6; [4]): > 50 µM; Amdizalisib concentration ([1]; nominal 3 µM, donor eight, 1h): 3.57 ± 0.26 µM; Amdizalisib concentration ([1]; nominal 3 µM, donor four, 1h): 3.38 ± 0.33 µM; Amdizalisib concentration ([1]; nominal 20 µM, donor eight, 1h): 23.3 ± 0.27 µM; Amdizalisib concentration ([1]; nominal 20 µM, donor eight, 4h): 21.2 ± 2.3 µM; Amdizalisib concentration ([1]; nominal 20 µM, donor eight, 24h): 21.9 ± 0.27 µM; percentage of amdizalisib remaining ([1]; donor seven, 30 µM): 105.3%; percentage of amdizalisib remaining ([1]; donor two, 10 µM): 105.8%; percentage of amdizalisib remaining ([1]; donor two, 30 µM): 104.3%; recovery at 6 h [2]: > 90%; Binding fraction to plasma proteins, Human (plasma proteins; 0.1 µM): 94.0 ± 0.86%; Binding fraction to plasma proteins, Human (plasma proteins; 1 µM): 92.8 ± 0.54%; Binding fraction to plasma proteins, Human (plasma proteins; 20 µM): 92.4 ± 0.15%; stability in plasma post-incubation (plasma proteins; all species, 37°C 6 h (data not shown)): > 90%; fraction unbound at 6 h (plasma proteins; plasma, pH 7.4, all species (mouse, rat, dog, monkey, human), 0.1–20 μM): ~0.1; Transporter substrate (Caco-2 cell monolayers): Not a substrate of P-gp and BCRP; Papp A→B at 30 min, 10 µM [3]: 457 nm/s; Papp A→B at 60 min, 5 µM [3]: 385 nm/s; Papp A→B at 60 min, 10 µM [3]: 399 nm/s; Papp A→B at 60 min, 20 µM [3]: 409 nm/s; Papp A→B at 60 min, 40 µM [3]: 363 nm/s; Papp A→B at 60 min, 60 µM [3]: 422 nm/s; Papp A→B at 90 min, 10 µM [3]: 389 nm/s; Papp A→B at 120 min, 10 µM [3]: 369 nm/s; Papp A→B at 150 min, 10 µM [3]: 371 nm/s; Papp B→A at 30 min, 10 µM [3]: 695 nm/s; Papp B→A at 60 min, 5 µM [3]: 504 nm/s; Papp B→A at 60 min, 20 µM [3]: 523 nm/s; Papp B→A at 60 min, 40 µM [3]: 454 nm/s; Papp B→A at 60 min, 60 µM [3]: 479 nm/s; Papp B→A at 60 min, 80 µM [3]: 454 nm/s; Papp B→A at 90 min, 10 µM [3]: 571 nm/s; Papp B→A at 120 min, 10 µM [3]: 560 nm/s; Papp B→A at 150 min, 10 µM [3]: 556 nm/s; Papp A→B at 60 min, 80 µM ([3]; substrate 80 µM, 60 min): 477 nm/s; Enzyme activity Percent of PC (%) (CYP2B6; 1 µM): 2.60%; Enzyme activity Percent of PC (%) (CYP2B6; 3 µM): 3.00%; Enzyme activity Percent of PC (%) (CYP2B6; 10 µM): 3.10%; Enzyme activity Percent of PC (%) (CYP2B6; 20 µM): -11.1%; Enzyme activity Percent of PC (%) (CYP2B6; 30 µM): -13.3%; enzyme activity remaining (CYP3A4/5; CYP3A4_Midazolam, 0.08 μM): 93.8% and 105%; enzyme activity remaining (CYP3A4/5; CYP3A4_Midazolam, 0.4 μM): 106% and 103%; enzyme activity remaining (CYP3A4/5; CYP3A4_Midazolam, 2 μM): 103% and 100%; enzyme activity remaining (CYP3A4/5; CYP3A4_Midazolam, 10 μM): 99.4% and 101%; enzyme activity remaining (CYP3A4/5; CYP3A4_Midazolam, 50 μM): 89.1% and 86.3%; enzyme activity remaining (CYP3A4/5; CYP3A4_Testosterone, 0.08 μM): 101% and 99.4%; enzyme activity remaining (CYP3A4/5; CYP3A4_Testosterone, 0.4 μM): 86.1% and 90.5%; enzyme activity remaining (CYP3A4/5; CYP3A4_Testosterone, 2 μM): 89.9% and 94.3%; enzyme activity remaining (CYP3A4/5; CYP3A4_Testosterone, 10 μM): 83.5% and 84.8%; enzyme activity remaining (CYP3A4/5; CYP3A4_Testosterone, 50 μM): 86.7% and 69.0%; IC50 (CYP3A4/5; human, human liver microsomes, reversible, without pre-incubation): > 50 µM
